Legend:
[1] = biological target: T1, QPCTL (Homo sapiens (Human), UniProt Q9NXS2); experiment: Inhibition of Cellular QPCTL Activity - FACS flow cytometry, CC2C6 anti-CD47 staining of Ramos cells; type: cell-based; details: Ramos human Burkitts Lymphoma cells, 72-96 hours, % CC2C6-positive cells
Protocol: Inhibition of Cellular QPCTL Activity—Fluorescence-Activated Cell Sorting (FACS) Flow Cytometry
The cells were incubated for 72-96 hours at 37° C. and 5% CO2. At the end of incubation period, cells were transferred to tubes and spun down at 1200 rpm for 5 minutes. […] After antibody staining, the cells were washed with FACS buffer then stained with SYTOX™ Blue dead cell stain at a dilution of 1:1000. Cells were analyzed on a BD FACS Melody and a positive staining gate on live cells was set using the 0.1% DMSO controls. […] Flow cytometry data were analyzed by FlowJo software and concentration-response-curves and IC50 values were generated using Collaborative Drug Discovery software.
Target sequence in this assay (Q9NXS2 whole entry): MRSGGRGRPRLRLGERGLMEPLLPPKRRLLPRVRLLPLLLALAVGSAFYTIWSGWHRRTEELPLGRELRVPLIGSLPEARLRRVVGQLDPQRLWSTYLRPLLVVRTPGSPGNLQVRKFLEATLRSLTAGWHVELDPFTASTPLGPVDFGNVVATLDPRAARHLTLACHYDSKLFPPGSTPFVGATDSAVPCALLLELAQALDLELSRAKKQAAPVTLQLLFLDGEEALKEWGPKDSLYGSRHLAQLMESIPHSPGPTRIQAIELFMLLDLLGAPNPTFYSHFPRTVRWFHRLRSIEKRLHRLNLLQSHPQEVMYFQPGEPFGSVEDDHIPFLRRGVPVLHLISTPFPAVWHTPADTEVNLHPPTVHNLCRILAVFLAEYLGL

[2] = biological target: QPCT (rhQPCT) (Homo sapiens (Human), UniProt Q16769); experiment: QPCT Enzymatic Activity Assay (coupled-enzyme fluorescent assay, H-Gln-AMC substrate); type: biochemical; details: rhQPCT 10-12 nM, 10 μM H-Gln-AMC; read-out: QPCT Inhibition IC50
In short: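 Coupled assay: recombinant human QPCT converts H-Gln-AMC (10 μM final) to pyroglutamyl-AMC, 60 min at 37 °C, stopped by boiling; PGPEP-1 then releases AMC.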

[3] = biological target: T1, QPCTL; experiment: QPCTL Enzymatic Activity Assay (coupled-enzyme fluorescent assay, H-Gln-AMC substrate); type: biochemical; details: recombinant truncated human QPCTL 10-12 nM, 10 μM H-Gln-AMC; read-out: QPCTL Inhibition IC50
Target sequence in this assay (Q9NXS2 53-382): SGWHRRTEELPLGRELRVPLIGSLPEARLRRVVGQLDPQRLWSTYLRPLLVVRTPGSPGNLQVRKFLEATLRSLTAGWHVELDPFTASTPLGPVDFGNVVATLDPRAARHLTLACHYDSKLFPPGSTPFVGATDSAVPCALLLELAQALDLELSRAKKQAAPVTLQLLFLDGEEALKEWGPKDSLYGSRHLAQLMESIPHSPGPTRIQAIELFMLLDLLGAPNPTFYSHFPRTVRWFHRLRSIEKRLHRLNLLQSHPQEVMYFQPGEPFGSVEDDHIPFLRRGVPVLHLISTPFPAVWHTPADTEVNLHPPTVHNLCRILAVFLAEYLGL

[4] = biological target: T1, QPCTL; experiment: Inhibition of Cellular QPCTL Activity - Imaging Assay, CC2C6 anti-CD47 staining of DLD-1 cells; type: cell-based; details: 72 hours, CC2C6 anti-CD47 high-content imaging
Protocol: Inhibition of Cellular QPCTL Activity—Imaging Assay
The cells were incubated for 72 hours at 37° C. and 5% CO2. […] After primary antibody staining, the cells were fixed with 4% paraformaldehyde in the incubation buffer for 15 minutes at room temperature. […] Cells were analyzed on a ImageXpress Pico Automated Cell Imaging System (Molecular Devices) using 10× objective (3×3 fields).
Target sequence in this assay (Q9NXS2 whole entry): as the sequence (Q9NXS2 whole entry) above

Chain of QPCT (rhQPCT) (Q16769 29-361): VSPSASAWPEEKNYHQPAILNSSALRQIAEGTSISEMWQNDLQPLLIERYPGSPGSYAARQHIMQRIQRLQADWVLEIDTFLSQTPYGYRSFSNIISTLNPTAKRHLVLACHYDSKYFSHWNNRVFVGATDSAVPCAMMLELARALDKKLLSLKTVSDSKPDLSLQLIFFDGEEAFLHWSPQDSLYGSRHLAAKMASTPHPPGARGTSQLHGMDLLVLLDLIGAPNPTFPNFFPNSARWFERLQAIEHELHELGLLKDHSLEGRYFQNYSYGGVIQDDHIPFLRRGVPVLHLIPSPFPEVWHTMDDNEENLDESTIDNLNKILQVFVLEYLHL

Row | Compound | IC50 [1] | IC50 [2] | IC50 [3] | IC50 [4]
1 | Cn1cnnc1C1CCN(c2c(C#N)cccc2-c2cccnc2)CC1 [Example 2, 2-[4-(4-methyl-4H-1,2,4-triazol-3-yl)piperidin-1-yl]-3-(pyridin-3-yl)benzonitrile] | 100 to 1000 nM | < 100 nM | < 100 nM | 
2 | COc1ccncc1-c1cccc(C#N)c1N1CCC(c2nncn2C)CC1 [Example 3, 3-(4-methoxypyridin-3-yl)-2-[4-(4-methyl-4H-1,2,4-triazol-3-yl)piperidin-1-yl]benzonitrile] | 100 to 1000 nM | < 100 nM | < 100 nM | 
3 | Cn1cnnc1C1CCN(c2c(-c3ccc(F)nc3)ccc(N3CCNCC3)c2C#N)CC1 [Example 85, 3-(6-fluoropyridin-3-yl)-2-(4-(4-methyl-4H-1,2,4-triazol-3-yl)piperidin-1-yl)-6-(piperazin-1-yl)benzonitrile] |  | < 100 nM | < 100 nM | 1000 to 10000 nM
4 | COCCOc1ccc(-c2ccc(F)nc2)c(N2CCC(c3nncn3C)CC2)c1C#N [Example 86, 3-(6-fluoropyridin-3-yl)-6-(2-methoxyethoxy)-2-(4-(4-methyl-4H-1,2,4-triazol-3-yl)piperidin-1-yl)benzonitrile] |  | < 100 nM | < 100 nM | < 100 nM
5 | Cn1cnnc1C1CCN(c2c(-c3ccc(F)nc3)ccc(N3CCOCC3)c2C#N)CC1 [Example 87, 3-(6-fluoropyridin-3-yl)-2-(4-(4-methyl-4H-1,2,4-triazol-3-yl)piperidin-1-yl)-6-morpholinobenzonitrile] |  | < 100 nM | < 100 nM | < 100 nM
6 | Cn1cnnc1C1CCN(c2c(-c3ccc(F)nc3)ccc(-c3c[nH]nc3N)c2C#N)CC1 [Example 92, 6-(3-amino-1H-pyrazol-4-yl)-3-(6-fluoropyridin-3-yl)-2-(4-(4-methyl-4H-1,2,4-triazol-3-yl)piperidin-1-yl)benzonitrile] |  | < 100 nM | < 100 nM | 100 to 1000 nM
7 | Cn1cnnc1C1CCN(c2c(C#N)cccc2-c2cnc3nccn3c2)CC1 [Example 93, 3-(imidazo[1,2-a]pyrimidin-6-yl)-2-(4-(4-methyl-4H-1,2,4-triazol-3-yl)piperidin-1-yl)benzonitrile] |  | < 100 nM | < 100 nM | 100 to 1000 nM
8 | COc1ccc(-c2cnc3nccn3c2)c(N2CCC(c3nncn3C)CC2)c1C#N [Example 94, 3-(imidazo[1,2-a]pyrimidin-6-yl)-6-methoxy-2-(4-(4-methyl-4H-1,2,4-triazol-3-yl)piperidin-1-yl)benzonitrile] |  | < 100 nM | < 100 nM | 1000 to 10000 nM
9 | Cn1cnnc1C1CCN(c2c(-c3ccc(F)nc3)ccc(N3CC(O)C3)c2C#N)CC1 [Example 95, 3-(6-fluoropyridin-3-yl)-6-(3-hydroxyazetidin-1-yl)-2-(4-(4-methyl-4H-1,2,4-triazol-3-yl)piperidin-1-yl)benzonitrile] |  | < 100 nM | < 100 nM | < 100 nM
10 | Cn1cnnc1C1CCN(c2c(C#N)cccc2-c2ccc(F)cc2)CC1 [Example 96, 4′-fluoro-2-(4-(4-methyl-4H-1,2,4-triazol-3-yl)piperidin-1-yl)-[1,1′-biphenyl]-3-carbonitrile] |  | < 100 nM | < 100 nM | 1000 to 10000 nM
11 | CC(=O)c1ccc(-c2ccc(F)nc2)c(N2CCC(c3nncn3C)CC2)c1C#N [Example 97, 6-acetyl-3-(6-fluoropyridin-3-yl)-2-(4-(4-methyl-4H-1,2,4-triazol-3-yl)piperidin-1-yl)benzonitrile] |  | < 100 nM | < 100 nM | < 100 nM
12 | Cn1cnnc1C1CCN(c2c(-c3ccc(F)nc3)ccc(-c3ccn(C4CC4)n3)c2C#N)CC1 [Example 98, 6-(1-cyclopropyl-1H-pyrazol-3-yl)-3-(6-fluoropyridin-3-yl)-2-(4-(4-methyl-4H-1,2,4-triazol-3-yl)piperidin-1-yl)benzonitrile] |  | < 100 nM | < 100 nM | < 100 nM
13 | Cn1cnnc1C1CCN(c2c(C#N)cc(C#N)cc2-c2ccc(F)nc2)CC1 [Example 100, 5-(6-fluoropyridin-3-yl)-4-(4-(4-methyl-4H-1,2,4-triazol-3-yl)piperidin-1-yl)isophthalonitrile] |  | < 100 nM | < 100 nM | < 100 nM
14 | Cn1cnnc1C1CCN(c2c(C#N)cc(S(C)(=O)=O)cc2-c2ccc(F)nc2)CC1 [Example 101, 3-(6-fluoropyridin-3-yl)-2-(4-(4-methyl-4H-1,2,4-triazol-3-yl)piperidin-1-yl)-5-(methylsulfonyl)benzonitrile] |  | < 100 nM | < 100 nM | 1000 to 10000 nM
15 | Cn1cnnc1C1CCN(c2c(-c3ccc(F)nc3)cc3cn[nH]c3c2C#N)CC1 [Example 105, 5-(6-fluoropyridin-3-yl)-6-(4-(4-methyl-4H-1,2,4-triazol-3-yl)piperidin-1-yl)-1H-indazole-7-carbonitrile] |  | < 100 nM | < 100 nM | 100 to 1000 nM
16 | Cn1cnnc1N1CCN(c2c(C#N)cccc2-c2ccc(F)nc2)CC1 [Example 106, 3-(6-fluoropyridin-3-yl)-2-(4-(4-methyl-4H-1,2,4-triazol-3-yl)piperazin-1-yl)benzonitrile] |  | < 100 nM | < 100 nM | < 100 nM
17 | COc1cc(F)c(-c2ccc(F)nc2)c(N2CCC(c3nncn3C)CC2)c1C#N [Example 107, 4-fluoro-3-(6-fluoropyridin-3-yl)-6-methoxy-2-(4-(4-methyl-4H-1,2,4-triazol-3-yl)piperidin-1-yl)benzonitrile] |  | < 100 nM | < 100 nM | < 100 nM

The next lines start with the values.

Row | IC50 [1] | IC50 [2] | IC50 [3] | IC50 [4] | Compound
18 |  | < 100 nM | < 100 nM | < 100 nM | Cn1cnnc1C1CCN(c2c(-c3ccc(F)nc3)ccc(C3COC3)c2C#N)CC1 [Example 108, 3-(6-fluoropyridin-3-yl)-2-(4-(4-methyl-4H-1,2,4-triazol-3-yl)piperidin-1-yl)-6-(oxetan-3-yl)benzonitrile]
19 |  | < 100 nM | < 100 nM | < 100 nM | Cn1cnnc1C1CCN(c2c(C#N)cccc2-c2ccc(O)c(C=O)c2)CC1 [Example 109, 3′-formyl-4′-hydroxy-2-(4-(4-methyl-4H-1,2,4-triazol-3-yl)piperidin-1-yl)-[1,1′-biphenyl]-3-carbonitrile]
20 |  | < 100 nM | < 100 nM | 100 to 1000 nM | Cn1cnnc1C1CCN(c2c(C#N)cccc2-c2cncc(Cl)c2)CC1 [Example 115, 3-(5-chloropyridin-3-yl)-2-(4-(4-methyl-4H-1,2,4-triazol-3-yl)piperidin-1-yl)benzonitrile]
21 |  | < 100 nM | < 100 nM | < 100 nM | Cn1cnnc1C1CCN(c2c(C#N)cccc2-c2cncc(B(O)O)c2)CC1 [Example 117, (5-(3-cyano-2-(4-(4-methyl-4H-1,2,4-triazol-3-yl)piperidin-1-yl)phenyl)pyridin-3-yl)boronic acid]
22 |  | < 100 nM | < 100 nM | < 100 nM | Cn1cnnc1C1CCN(c2c(C#N)cccc2-c2cncc(O)c2)CC1 [Example 120, 3-(5-hydroxypyridin-3-yl)-2-(4-(4-methyl-4H-1,2,4-triazol-3-yl)piperidin-1-yl)benzonitrile]
23 |  | < 100 nM | < 100 nM | < 100 nM | Cn1ccc(-c2ccc(-c3ccc(F)nc3)c(N3CCN(c4nncn4C)CC3)c2C#N)n1 [Example 122, 3-(6-fluoropyridin-3-yl)-6-(1-methyl-1H-pyrazol-3-yl)-2-(4-(4-methyl-4H-1,2,4-triazol-3-yl)piperazin-1-yl)benzonitrile]
24 |  | < 100 nM | < 100 nM | 1000 to 10000 nM | Cn1cnnc1C1CCN(c2c(C#N)cccc2-c2ccc3c(c2)COB3O)CC1 [Example 123, 3-(1-hydroxy-1,3-dihydrobenzo[c][1,2]oxaborol-5-yl)-2-(4-(4-methyl-4H-1,2,4-triazol-3-yl)piperidin-1-yl)benzonitrile]
25 |  | < 100 nM | < 100 nM | 100 to 1000 nM | Cn1ccc(-c2ccc(-c3ccc(O)c(C=O)c3)c(N3CCC(c4nncn4C)CC3)c2C#N)n1 [Example 124, 3′-formyl-4′-hydroxy-4-(1-methyl-1H-pyrazol-3-yl)-2-(4-(4-methyl-4H-1,2,4-triazol-3-yl)piperidin-1-yl)-[1,1′-biphenyl]-3-carbonitrile]
26 |  | < 100 nM | < 100 nM | < 100 nM | Cn1cnnc1C1CCN(c2c(-c3ccc(F)nc3)ccnc2C#N)CC1 [Example 132, 6-fluoro-3′-(4-(4-methyl-4H-1,2,4-triazol-3-yl)piperidin-1-yl)-[3,4′-bipyridine]-2′-carbonitrile]
27 |  | < 100 nM | < 100 nM | < 100 nM | Cn1cnnc1C1CCN(c2c(C#N)ccnc2-c2ccc(F)nc2)CC1 [Example 133, 6′-fluoro-3-(4-(4-methyl-4H-1,2,4-triazol-3-yl)piperidin-1-yl)-[2,3′-bipyridine]-4-carbonitrile]
